# Laboratory results: patent US5473074A, “Adenosine diphosphoribose polymerase binding nitroso aromatic compounds useful as retroviral inactivating agents, anti-retroviral agents and anti-tumor agents-54” (priority 1992, dated 1995)
# “Also recorded” adds a separate entry of the source.
# Assays:
# [1] = molecular target: Zn(HIV1-F1)-oligonucleotide complex (Human immunodeficiency virus type 1 lw12.3 isolate, UniProt Q70622); assay: NMR studies of Zn(HIV1-F1) nucleic acid binding; type: biochemical, HIV-1; conditions: two equivalents of NOBA (FIG. 11)
# Text: The downfield regions of the spectra show the signals of the aromatic and ribose H1' protons, and the upfield region contain signals of the methyl group protons. Dramatic spectral changes occur upon addition of oligonucleotide to Zn(HIV1-F1), including large upfield shifts of the Phe 2 and Ile 10 side chain=n signals and a downfield shifting and broadening of the guanosine-H8 proton signal (second from the top).
# The reaction mechanism, schematically illustrated in FIG. 12, is consistent with the result of NMR analysis in FIGS. 10 and 11. The reaction mechanism proposed in FIG. 12 is a useful model but is not intended to limit the scope of the claimed invention.
# [2] = molecular target: Zn(HIV1-F1), N-terminal CCHC zinc finger of the HIV-1 NC protein (Human immunodeficiency virus type 1 lw12.3 isolate, UniProt Q70622); assay: NMR studies of zinc ejection from Zn(HIV1-F1); type: biochemical; conditions: 2 mM NOBA
# Description: The * and + symbols denote the aromatic proton signals of the zinc-coordinated and zinc-free His 9 residue. Upon completion of the reaction, reflected by complete ejection of zinc (t=90 min), 50% of the NOBA remained unreacted indicating a 1:1 reaction stoichiometry. NOBA (3-nitrosobenzamide), was synthesized described elsewhere in this application.
# To determine if NOBA is capable of ejecting zinc from retroviral-type zinc fingers, NMR studies were performed on a peptide with amino acid sequence corresponding to the N-terminal CCHC zinc finger of the HIV-1 NC protein, Zn(HIV1-F1), South, et al., J. Am. Chem. Soc. 111:395-396 (1989), South, et al., Biochem Pharm. 40:123-129 (1990), Summers, et al., Biochemistry 29:329-340 (1990). NMR spectra of Zn(HIV-F1) were performed before and after the addition of NOBA (3-nitrosobenzamide). […] Chem Soc. 111:395-396 (1989), and three-dimensional structural studies have shown that the peptide adopts a structure that is essentially identical to the structure of the corresponding region in the intact NC protein, South, et al., Biochemistry 29:7786-7789 (1990). The down-field region of the ^1 H NMR spectrum showing the signals due to the aromatic proton of His 9 and Phe 2 is illustrated in FIG. 10 (bottom). […]
# [3] = test system: L1210 murine leukemia; assay: L1210 murine leukemia in vivo in BDF mice; parameters: species or system mouse; conditions: 2 mg/kg i.p. twice a day
# [4] = test system: normal rhesus bone marrow stem cells; assay: CFU stem cell toxicity assay, FIG. 5A; conditions: 10 μM
# [5] = test system: human peripheral blood neutrophil leukocytes; assay: Superoxide generation by human neutrophils
# [6] = test system: H9 cells; assay: [3H]thymidine uptake, H9 cells; type: cell-based, human; conditions: 10% FCS
# [7] = test system: 855-2 cells; assay: MTT assay, cytocidal activity; type: cell-based, human; conditions: 10 μM, 100,000 cells/ml
# Description: MTT (3-[4,5-[…]]-2,5-diphenyltetrazolium bromide) at 1 mg/ml was then added for 16 hours. The absorbance of the pelleted cell was then measured at 550 nm after adding DMSO to solubilze the cells.
# [8] = test system: 855-2 cells; assay: Colony formation (CFU) in semi-solid medium, 855-2; type: cell-based, human; conditions: single cells in semi-solid medium
# [9] = test system: human leukemia cell lines (855-2, H9, HL-60, K562); assay: [3H]thymidine uptake, human leukemia cell lines (FIG. 2); type: cell-based
# Description: FIGS. 2A-2F are composite of graphs displaying the inhibitory effects of the ADRPT ligands on (FIG. 2A) 855-2 cells (a cell line of human B-cell lineage acute lymphoblastic leukemia), (FIG. 2B) H9 cells (a cell line of human T-cell lineage acute lymphoblastic leukemia), (FIG. 2C) HL-60 cells (a cell line of human acute nonlymphoblastic leukemia) and (FIG. 2D) K562 cells (a cell line of human chronic myelogenous leukemia). These cells were cultured while under the influence of the growth factors in 10% fetal bovine serum (FCS), whereas in (FIG. 2E) and (FIG. 2F) the 855-2 cells were cultured in the presence of autocrine growth factor activity (AGF) or low molecular weight-B-cell growth factor (BCGF, a T-cell derived lymphokine), respectively.
# [10] = test system: HIV-1; assay: Anti-HIV action on stimulated human lymphoblasts, virus titer; type: cell-based; conditions: 10 μM; 30 min exposure; virus alone 5.25
# Description: VIII. Anti-HIV action of NOBP, NOBA and NOQ on stimulated human lymphoblasts
# Exposure to the two drugs was only for 30 minutes at the commencement of viral infection, and drugs were never re-added. The results given in Table III provide the ID50 of HIV titer 10 days after infection of cell cultures with HIV.
# [11] = test system: cancer cells (855-2 and HL-60 leukemia, D32, D37 and CRL 7712 glioblastoma, 186 medulla tumor, L1210 murine leukemia, MDA-468 human breast tumor); assay: Functions of cancer cells in absence or presence of compounds (FIGS. 4-9); type: cell-based
# Description: Experiments were performed in which the functions of various cancer cells (855-2 and HL-60 leukemia cells, D32, D37 and CRL 7712 glioblastoma cell lines, 186 medulla tumor cell line, L1210 murine leukemia cell line, MDA-468 human breast tumor cell line) and normal cells (neutrophil leukocytes and bone marrow or peripheral blood stream cells) were assessed in the absence or presence of the compounds.
compound,measurement,setting,value
"NC(=O)c1cccc(N=O)c1 [NOBA, 3-nitrosobenzamide]","zinc ejection and loss of nucleic acid binding, in words",[1],ejection of zinc with concomitant dissociation of the zinc finger nucleic acid complex; also recorded: NOBA-induced zinc ejection leads to loss of high-affinity nucleic acid binding function
same,time of complete ejection of zinc from Zn(HIV1-F1),"[2]; 1 mM Zn(HIV1-F1), D2O, pH* 6.2, 30° C.",90 min
same,NOBA remaining unreacted,[2]; 90 min,50%
same,life span of L1210-bearing BDF mice,"[3]; 6 consecutive days, untreated 10 days, 35 days = end of observation",35 days
same,"in vivo chemotherapeutic response, in words",[3]; 6 days,highly significant in vivo chemotherapeutic response
same,toxic effects in mice,[3]; 6 days,no toxic effects
same,"CFU stem cell toxicity, in words",[4],non-toxic
same,"superoxide generation by human neutrophils (mean + S.D., n = 11)","[5]; 10 μM, 10^5 PMN + PMA (control 55.9 ± 7.7)",44.4 ± 10.0 nmol O2^- /hr/10^5 cells
same,"superoxide generation, in words",[5]; 10 μm,Only minor reductions in superoxide generation
same,"inhibition of thymidine uptake, H9",[6]; 250 μM,almost complete inhibition
same,inhibition at 10 µM,"[6]; Homo sapiens, H9, 10 μM",~75%
same,inhibition at 100 µM,"[6]; Homo sapiens, H9, 100 μM",~85%
same,"killing of 855-2 cells (MTT), in words",[7],complete killing
same,"colony formation, 855-2, in words",[8],inhibit the ability of human leukemic cells (855-2 and HL-60) to form colonies
same,"inhibition of 3H-thymidine uptake, in words","[9]; 10 μM, 855-2, H9, HL-60, K562 cells",powerfully inhibited 3H-thymidine uptake
same,"molar concentrations needed to inhibit 3H-thymidine uptake, in words",[9]; each of the cell lines tested,able to inhibit 3H-thymidine uptake in lower molar concentrations than the other compounds
same,"Virus Titer (log ID50), 10 days",[10],1.05 log ID50
same,"activity against tumor cells, in words",[11],highly effective (against tumor cells)
